These results are taken from US20250296971A1, “GASTRIC INHIBITORY PEPTIDE RECEPTOR LIGANDS” (priority 2021, published 2025).

*1 amine or outer side, *2 acyl side, *3 side chain or, on linkers, in order; H or OH if unused. Where a SMILES comes first, the peptide text is derived from it. Bridges are numbered along the chain shown (N, C = ends). [ ]: non-standard residue; d: D form. The star is where a group is joined. X5 = NC(=O)[C@H](CCCCNC(=O)CN1CCN(CC(=O)O)CCN(CC(=O)O)CCN(CC(=O)O)CC1)NC(=O)CCC(=O)NCCCOCCOCCOCCCN*; X3 = O=C(O)CN1CCN(CC(=O)O)CCN(CC(=O)NCCCOCCOCCOCCCN*)CCN(CC(=O)O)CC1; Pro(trans-4-NH2) = O=C([C@@H]1C[C@@H](N[*:3])CN1[*:1])[*:2]; DOTA = O=C(O)CN1CCN(CC(=O)O)CCN(CC(=O)*)CCN(CC(=O)O)CC1; 2Lut = 2,6-lutidylidene bridge between two thiols; Trp(5-Cl) = N[C@@H](Cc1c[nH]c2ccc(Cl)cc12)C(=O)O; APAc = 4-amino-1-carboxymethylpiperidine; mXylylene = c1cc(C[*:1])cc(C[*:2])c1; Glutaryl = O=C(CCCC(=O)[*:2])[*:1]; AGLU = 1-amino-1-deoxy-D-glucitol; Suc = O=C(CCC(=O)[*:2])[*:1]; glu(AGLU) = not defined here; hSer = N[C@@H](CCO)C(=O)O; Api = NC1(C(=O)O)CCNCC1

Series [1] can be described thus: Plasma stability assay, mouse plasma. In kind it is in vitro ADME. The conditions noted are these: 37° C., % intact compound remaining after 4 h or 24 h. The protocol:
(§1) In order to determine the stability of selected compounds of the invention in human and mouse plasma, a plasma stability assay was carried out. Such plasma stability assay measures degradation of compounds of the present invention in blood plasma. This is an important characteristic of a compound as compounds, with the exception of pro-drugs, which rapidly degrade in plasma, generally show poor in vivo efficacy. […] The stability is sufficient for the diagnostic, therapeutic and theragnostic use of these compounds according to the present invention.
(§2) The plasma stability samples were prepared by spiking 50 μL plasma aliquots (all K2EDTA) with 1 μL of a 0.5 mM compound stock solution in DMS0. After vortexing the samples were incubated in a Thermomixer at 37° C. for 0, 4 and 24 hours. After incubation the samples were stored on ice until further treatment. All samples were prepared in duplicates.
(§3) A suitable internal standard was added to each sample (1 μL of a 0.5 mM stock solution in DMSO). Protein precipitation was performed by addition of 250 μL of acetonitrile containing 1% trifluoroacetic acid. After incubation at room temperature for 30 min the precipitate was separated by centrifugation and 150 μL of the supernatant was diluted with 150 μL of 1% aqueous formic acid.
(§4) Additionally, recovery was determined by spiking a pure plasma sample that only contained the internal standard after treatment with a certain amount of the compound.
(§5) Carry-over was evaluated by analysis of a blank sample (20% acetonitrile) after the highest calibration sample.

Series [2] addresses Recombinant soluble human NEP (Homo sapiens, UniProt P08473). Description: Proteolytic stability assay against NEP. The conditions noted are these: NEP 100 ng/mL, compound 10 μM, 37° C., % intact compound remaining.
Series [3] deals with T1, GIPR (CHO-K1-hGIPR cells) (Homo sapiens, UniProt P48546).
T1 construct: host or cells: CHO-K1
T1 sequence (P48546 22-466): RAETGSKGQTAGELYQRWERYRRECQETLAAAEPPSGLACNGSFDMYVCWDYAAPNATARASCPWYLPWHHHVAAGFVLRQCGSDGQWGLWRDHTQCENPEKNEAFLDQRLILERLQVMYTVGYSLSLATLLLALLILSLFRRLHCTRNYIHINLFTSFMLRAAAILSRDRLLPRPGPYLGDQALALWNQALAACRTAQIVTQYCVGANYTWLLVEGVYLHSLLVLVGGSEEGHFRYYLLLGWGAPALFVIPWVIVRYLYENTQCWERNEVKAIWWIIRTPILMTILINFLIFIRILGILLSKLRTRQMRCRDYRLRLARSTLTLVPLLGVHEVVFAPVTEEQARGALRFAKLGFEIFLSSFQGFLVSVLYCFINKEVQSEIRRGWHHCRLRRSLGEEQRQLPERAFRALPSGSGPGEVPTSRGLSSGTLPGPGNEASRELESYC
Briefly: FACS binding assay. The conditions noted are these: competition with 20 nM GIP-057, 4° C., 1 hour, read-out: pIC50 Category (converted). An outline of the steps: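 Peptide binding read by flow cytometry as APC-channel median fluorescence, fitted with a four-parameter logistic to yield EC50 or IC50. Cells were hGIPR-transfected CHO-K1 in PBS with 1% FCS, detected with 1 μg/mL APC-streptavidin, 30 min on ice.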

Series [4] can be described thus: Plasma stability assay, human plasma. Type of series: in vitro ADME. The conditions noted are these: 37° C., % intact compound remaining after 4 h or 24 h. The method, then: as §1, §2, §3, §4, §5
The target in series [5] is T2, human GIPR (HEK-GIPR cells) (Homo sapiens, UniProt P48546).
T2 construct: host or cells: HEK293
T2 sequence (P48546 22-466): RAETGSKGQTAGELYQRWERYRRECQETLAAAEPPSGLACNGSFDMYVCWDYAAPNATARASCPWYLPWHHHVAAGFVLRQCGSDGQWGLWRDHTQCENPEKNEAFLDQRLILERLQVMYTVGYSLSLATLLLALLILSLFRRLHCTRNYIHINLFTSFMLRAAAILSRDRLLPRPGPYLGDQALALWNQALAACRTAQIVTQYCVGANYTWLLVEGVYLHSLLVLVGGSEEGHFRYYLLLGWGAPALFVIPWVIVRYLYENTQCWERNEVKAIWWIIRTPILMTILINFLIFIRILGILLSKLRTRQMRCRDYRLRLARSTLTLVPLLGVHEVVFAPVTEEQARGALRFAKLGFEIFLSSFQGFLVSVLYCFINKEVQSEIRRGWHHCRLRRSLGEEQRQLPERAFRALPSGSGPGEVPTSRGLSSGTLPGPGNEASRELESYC
Briefly: cAMP assay. Type of series: cell-based. As to conditions: 37° C., 30 min, cAMP-Glo. The method, then: In order to determine the inhibitory or stimulatory activity of compounds according to the present invention of GIPR-expressing cells, a cAMP activity assay was established.
HEK-GIPR cells were generated by InSCREENeX GmbH (Germany) using the targeting vector pTAR to insert the minimal CMV promoter upstream of the human GIPR cDNA by recombinase-mediated cassette exchange into the pre-tagged HEK293 cell line.
HEK-GIPR cells were cultured in RPMI-1640 medium (Sigma-Aldrich, #R0883) including 10% fetal calf serum (FCS), 8 mM L-glutamine, 100 U/mL penicillin, 100 μg/mL streptomycin and 1 mg/mL Geneticin. Cells were detached with Accutase (Biolegend, #BLD-423201) and diluted in culture medium to a final concentration of 100,000 cells per mL. 100 μL of the cell suspension were transferred to white poly-L-lysine-coated 96-well plates with optical bottom (Nunc, #165306) and incubated overnight in a humidified atmosphere containing 5% CO2 at 37° C.
For cAMP detection, the cAMP-Glo™ Assay (Promega, #V1501) was employed. […] After 10 min of incubation, luminescence was read using a SpectraMax M5 Plate Reader (Molecular Devices).
Relative luminescence values (RLU) were plotted against peptide concentration and four parameter logistic (4PL) curve fitting and calculations of EC50/pEC50 and IC50/pIC50, respectively, were performed using ActivityBase software.

In series [6] the target is human Gastric Inhibitory Peptide Receptor (human) (UniProt P48546). Description: FACS competition with GIP-057 on CHO-K1-hGIPR cells; pIC50 category B: 7.1-8.0.
In series [7] the target is biotinylated extracellular domain of the human GIP receptor (bioGIPR) (human) (UniProt P48546). Description: SPR single cycle kinetics, bioGIPR captured on chip; category B: pKD 8.1-9.0.
Series [8] has the same target. Briefly: SPR single cycle kinetics, bioGIPR captured on chip; category D: t1/2 <2.0 min.

Chain of Recombinant soluble human NEP (P08473 52-750 limits assumed): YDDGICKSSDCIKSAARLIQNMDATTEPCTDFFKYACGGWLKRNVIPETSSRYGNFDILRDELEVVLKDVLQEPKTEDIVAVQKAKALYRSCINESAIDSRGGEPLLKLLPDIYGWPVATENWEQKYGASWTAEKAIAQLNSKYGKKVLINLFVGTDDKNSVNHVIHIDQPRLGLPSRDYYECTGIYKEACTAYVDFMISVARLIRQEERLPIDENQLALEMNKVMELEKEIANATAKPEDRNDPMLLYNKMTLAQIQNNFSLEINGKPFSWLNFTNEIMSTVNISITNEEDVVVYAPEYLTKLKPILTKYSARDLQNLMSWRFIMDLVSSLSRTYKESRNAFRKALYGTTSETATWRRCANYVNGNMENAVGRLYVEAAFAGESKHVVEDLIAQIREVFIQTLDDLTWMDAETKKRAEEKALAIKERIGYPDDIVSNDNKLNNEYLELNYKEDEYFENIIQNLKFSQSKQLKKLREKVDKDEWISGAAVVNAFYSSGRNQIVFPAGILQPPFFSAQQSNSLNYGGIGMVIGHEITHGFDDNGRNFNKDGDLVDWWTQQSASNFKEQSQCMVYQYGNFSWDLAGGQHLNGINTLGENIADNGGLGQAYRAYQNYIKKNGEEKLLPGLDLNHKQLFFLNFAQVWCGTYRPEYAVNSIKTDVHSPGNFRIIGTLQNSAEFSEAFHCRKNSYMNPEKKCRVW

`CC[C@H](C)[C@@H]1NC(=O)[C@H](CC(C)C)NC(=O)[C@H](C)NC(=O)[C@@H](NC(=O)[C@H](CC(C)C)NC(=O)[C@H](CCC(=O)O)NC(=O)[C@@H]2CCCN2C(=O)[C@H](Cc2c[nH]c3ccccc23)NC(=O)[C@H](Cc2c[nH]c3ccccc23)NC(=O)[C@H](CC(=O)O)NC(=O)[C@H](Cc2ccc(O)cc2)NC(=O)CCC(=O)NCCCOCCOCCOCCCNC(=O)CN2CCN(CC(=O)O)CCN(CC(=O)O)CCN(CC(=O)O)CC2)CSCc2cccc(c2)CSC[C@@H](C(N)=O)NC1=O` [GIP-126, DOTA-Ttds-Tyr-Asp-Trp-Trp-Pro-Glu-Leu-[Cys(3MeBn)-Ala-Leu-Ile-Cys]-NH2] ({X3-Suc}-YDWWPELCALIC-NH2; linker 8-12 via mXylylene): in series [1], the “Mouse plasma stability category” value was “B (>80% intact after 4 hours)”. In series [2], the NEP stability category entry is “A (>80% intact after 24 hours)”. For the same molecule, the IC50 in series [3] is 10 to 79.4 nM.
On to `CC[C@H](C)[C@@H]1NC(=O)[C@H](CC(C)C)NC(=O)[C@H](C)NC(=O)[C@@H](NC(=O)[C@H](CC(C)C)NC(=O)[C@H](CCC(=O)O)NC(=O)[C@@H]2CCCN2C(=O)[C@H](Cc2c[nH]c3ccccc23)NC(=O)[C@H](Cc2c[nH]c3ccccc23)NC(=O)[C@H](CC(=O)O)NC(=O)[C@H](Cc2ccc(O)cc2)NC(C)=O)CSCc2cccc(c2)CSC[C@@H](C(=O)NCCCOCCOCCOCCCNC(=O)CCC(=O)N[C@@H](CCCCNC(=O)CN2CCN(CC(=O)O)CCN(CC(=O)O)CCN(CC(=O)O)CC2)C(N)=O)NC1=O` [GIP-127, Ac-Tyr-Asp-Trp-Trp-Pro-Glu-Leu-[Cys(3MeBn)-Ala-Leu-Ile-Cys]-Ttds-Lys(DOTA)-NH2] (Ac-YDWWPELCALIC-X5; linker 8-12 via mXylylene), for which the “Mouse plasma stability category” value in series [1] was “B (>80% intact after 4 hours)”. Besides, the NEP stability category result in series [2] is recorded as “A (>80% intact after 24 hours)”. For the same molecule, in series [3], the IC50 was 10 to 79.4 nM.
For `CC[C@H](C)[C@@H]1NC(=O)[C@H](CC(C)C)NC(=O)[C@H](C)NC(=O)[C@@H](NC(=O)[C@H](CC(C)C)NC(=O)[C@H](CCC(=O)O)NC(=O)[C@@H]2CCCN2C(=O)[C@H](Cc2c[nH]c3ccccc23)NC(=O)[C@H](Cc2c[nH]c3ccccc23)NC(=O)[C@H](CC(=O)O)NC(C)=O)CSCc2cccc(c2)CSC[C@@H](C(N)=O)NC1=O` [GIP-244, Ac-Asp-Trp-Trp-Pro-Glu-Leu-[Cys(3MeBn)-Ala-Leu-Ile-Cys]-NH2] (Ac-DWWPELCALIC-NH2; linker 7-11 via mXylylene), the “Human plasma stability category” value in series [4] is on record as “B (>80% intact after 4 hours)”. For the same molecule, the “Mouse plasma stability category” value in series [1] is recorded as “B (>80% intact after 4 hours)”. Moreover, the NEP stability category result in series [2] is on record as “A (>80% intact after 24 hours)”. In addition, the IC50 in series [3] was 10 to 79.4 nM.
For the molecule GIP(1-30) C-ter. ^natInDOTA, the “Mean pEC50 ± SD” value in series [5] amounted to 12.0 ± 0.1.
With {AGLU-Glutaryl-APAc}-SW[Trp(5-Cl)][Pro(trans-4-NH2)][hSer][dL]C[Api](DOTA)LIC-{APAc-glu(AGLU)-NH2} (linker 7-11 via 2Lut; reading uncertain) [AGLU-Glutar-APAc-Ser-Trp-5Clw-Tap-Hse-leu-[Cys(2Lut)-Apc(DOTA)-Leu-Ile-Cys]-APAc-glu(AGLU)-NH2], in series [6], the pIC50 was 7.1 to 8 pic50. In series [7], this molecule came in with a pKD of 8.1 to 9 pkd. In series [8], the t1/2 was below 2 min.
